Measured values: patent publication US20250114337A1, “METHODS FOR VASCULAR REGENERATION AND WOUND TREATMENT” (THE METHODIST HOSPITAL, priority 2022, published 2025)
“Also recorded” adds a separate entry of the source. Where two headings read alike, the source gives them in different places.

How the values were obtained:
[1] = system: BJ fibroblasts; experiment: in vitro transdifferentiation of fibroblasts to induced endothelial cells (iECs); type: cell-based, human; conditions: fibroblasts exposed during transdifferentiation protocol
Text: Innate immune activation is required for transdifferentiation. […] 131 (3): p. 300-9). iECs generated from this protocol manifest high fidelity for endothelial lineage. They incorporate acetylated LDL (FIG. 2B), form tubular networks (FIG. 2C), have similar transcriptomes as genuine endothelial cells, and increase capillary density and perfusion when injected into the ischemic hindlimb of the mouse (FIG. 2D) (Sayed, N., et al., Circulation, 2015. 131 (3): p. 300-9). This protocol can be utilized to study the role of O-GlcNAcylation in transdifferentiation in vitro.
O-GlcNAcylation is required for in vitro transdifferentiation. To define if the elevation of O-GlcNAcylation is required for transdifferentiation, fibroblasts were exposed to Thiamet G (TMG) (an OGA inhibitor that enhances O-GlcNAcylation) or DON (an inhibitor for GFAT that acts upstream in the hexosamine biosynthesis pathway and reduces O-GlcNAcylation). The number of iECs generated during transdifferentiation is increased when fibroblasts are exposed to TMG and decreased when exposed to DON (FIG. 5A). […] The role of O-GlcNAcylation of specific epigenetic regulars e.g., HIRA during transdifferentiation can also be addressed.
To define if the elevation of O-GlcNAcylation is required for transdifferentiation, inhibitors of O-GlcNAcylation including OSMI (an inhibitor for OGT) and DON (an inhibitor for GFAT that acts upstream in the hexosamine biosynthesis pathway and reduces O-GlcNAcylation) or an activator of O-GlcNAcylation. Thiamet G (TMG) (an OGA inhibitor that enhances O-GlcNAcylation), were delivered to BJ fibroblasts undergoing transdifferentiation. The number of CD31 expressing iECs generated during transdifferentiation decreases when exposed to OSMI or DON and increases when fibroblasts are exposed to TMG (FIG. 17B). Then OGT or OGA were knocked down using shRNA in the BJ fibroblasts (FIG. 17C) and performed transdifferentiation protocol in vitro.

[2] = system: ischemic hindlimb mice model; experiment: hindlimb ischemia recovery in WT C57BL/6 mice, laser doppler imaging; type: in vivo, mouse; conditions: TMG 10 mg/kg 0, 1, 2 days post-surgery; older mice (around 20 weeks)
Procedure: O-GlcNAcylation manipulations regulated recovery from tissue ischemia. To determine if the change in O-GlcNAcylation can modulate limb ischemia recovery, and contributes to vascular recovery, WT C57BL/6 mice were treated with the O-GlcNAcylation inhibitor, OSMI4, or O-GlcNAcylation enhancer, TMG 0, 1, 2 days post-surgery. Age is an important factor that determines recovery, and younger mice are known to have a more robust angiogenic response as compared with older mice. Accordingly, younger mice (between 8 to 12 weeks) were used to assess the impairment of angiogenesis by OSMI (which reduces O-GlcNAcylation). Older mice (around 20 weeks) were used to assess the enhancement of angiogenesis by TMG (which increases O-GlcNAcylation). […] It will be determined whether this beneficial effect is mediated by increased DNA accessibility and enhanced transdifferentiation.
To determine if O-GlcNAcylation manipulations can modulate the overall effect of vascular recovery from limb ischemia. WT C57BL/6 mice were treated with the O-GlcNAcylation inhibitor. OSMI4 (10 mg/kg), or O-GlcNAcylation enhancer. TMG (10 mg/kg) 0, 1, 2 days post-surgery (FIG. 19A).

[3] = system: ischemic hindlimb model; experiment: ischemic hindlimb model in fibroblast lineage tracing Fsp1-Cre: R26R-EYFP mice; type: in vivo, mouse; conditions: ischemic hindlimb
Procedure: Using established transdifferentiation protocol and metabolomics profiling to assess the global metabolic changes during transdifferentiation. […] To determine the role of this metabolite in transdifferentiation, the effect of Thiamet G was assessed, an inhibitor of OGA, which enhances O-GlcNAcylation. Thiamet G increased transdifferentiation efficiency in vitro. In a fibroblast lineage tracing mice, Fsp1-Cre: R26R-EYFP mice, Thiamet G increased tissue O-glycnacylation, increased capillary density and limb perfusion, and increased the number of fibroblasts transdifferentiating into endothelial cells (i.e. FSP+CD31+ cell) in an ischemic hindlimb model.
Angiogenic transdifferentiation in limb ischemia. A fibroblast lineage tracing mouse model (Fsp1-Cre: R26R-EYFP) was used to detect transdifferentiation in vivo in a murine model of limb ischemia (Meng, S., et al., Circulation, 2020. 142 (17): p. 1647-1662). […] This population is abolished when the mice are treated with anti-inflammatory drugs, such as dexamethasone. Intriguingly, the disappearance of these cells is associated with a reduction in perfusion recovery and worsening clinical scores. Similar results are achieved when inflammatory signaling is impaired, as in Fsp1-Cre: Rela flox/flox mice. In these animals, NFκB signaling is blocked in the Fsp1+fibroblasts, associated with a dramatic reduction in transdifferentiated fibroblasts (i.e. YFP+CD144+ cells), and impaired perfusion (Meng. S., et al., Circulation, 2020. 142 (17): p. 1647-1662). […] Cluster 8 produced angiogenic cytokines, whereas Cluster 5 expressed genes associated with EC identity (i.e CD144). But only Cluster 5 could generate EC-like networks in Matrigel whereas other fibroblasts, including Cluster 8 fibroblasts, formed nodal structures typical of fibroblasts in Matrigel. The data support the idea that transdifferentiation may occur in vivo with tissue ischemia, and is dependent on inflammatory signaling. This model can be used to study the contribution of O-GlcNAcylation in transdifferentiation and limb ischemia recovery in vivo. A similar lineage tracing approach can be used with tamoxifen-inducible Col1A2-Cre/ERT: R26R-tdTomato mouse strain to study the contribution of O-GlcNAcylation in transdifferentiation and limb ischemia recovery in vivo.
To determine if O-GlcNAcylation enhances revascularization through transdifferentiation, fibroblasts lineage tracing Fsp1-Cre: R26R-EYFP mice strain were utilized where it was previously observed the in situ transdifferentiation phenomenon (FIG. 20A). In this model, all the fibroblasts expressing Fsp1 (fibroblast-specific protein1) are marked with YFP. With this model, a significant increase in the FSP-expressing cell progeny in the ischemic limb was identified compared with the sham-operated limb 3 days after the femoral artery ligation was perform (FIG. 20A) and compare the YFP+ cells over the different time points (FIG. 20A). The percentage of the YFP+CD31+CD11b-cell population which is considered the transdifferentiation population was analyzed further. […] To determine the role of the O-GlcNAcylation on the transdifferentiation, the Fsp1-Cre: R26R-EYFP mice that are undergoing vascular recovery with OSMI were treated, and the transdifferentiation population in the limb muscle tissue 7 days post-surgery was analyzed.

[4] = system: UDP-GlcNAc; experiment: LC-MS-based metabolomic analysis of fibroblasts undergoing transdifferentiation; type: cell-based, human; conditions: 30 ng/ml Poly I:C with induction medium, 0, 1, 3 days
Procedure: (§1) Cellular O-GlcNAcylation is elevated during transdifferentiation. […] TLR3 activation increases DNA accessibility and facilitates transdifferentiation. Other forms of inflammatory activation also increase DNA accessibility (as with RIG1 activation). […] To determine if the increase in UDP-GlcNAc is associated with an increase in O-GlcNAcylation, cells were treated with PolyI:C or vehicle for 3 days, then the O-GlcNAcylated proteins in the nuclear (N), cytoplasmic (C), or whole-cell (W) lysates were enzymatically labeled with azido-modified galactose (GalNAz), which were further detected by click-it chemistry using a biotinylated alkyne and Western.
To profile the global metabolic changes during transdifferentiation, untargeted metabolomics with BJ human fibroblast cells undergoing transdifferentiation protocol was performed and treated with 30 ng/ml Poly I:C with the induction medium for 0, 1, and 3 days. Over 100 metabolites were identified from the LC-MS-based metabolomic analysis. […] UDP-GlcNAc is the substrate for O-GlcNAcylation and is the end-product of the hexosamine biosynthesis pathway (HBP).

[5] = system: O-GlcNAcylated proteins; experiment: Click-it O-GlcNAc enzymatic labeling and detection assay; type: cell-based; conditions: 3 days vs vehicle, nuclear, cytoplasmic, whole-cell lysates
Procedure: as §1
To determine if the increase in UDP-GlcNAc is associated with an increase in O-GlcNAcylation, cells were treated with Poly I:C or vehicle for 3 days, then the O-GlcNAcylated proteins in the nuclear (N), cytoplasmic (C), or whole-cell (W) lysates were enzymatically labeled with azido-modified galactose (GalNAz), which were further detected by click-it chemistry using a biotinylated alkyne and Western.

[6] = system: accessible chromatin; experiment: ATAC seq chromatin accessibility in fibroblasts; type: cell-based
Text: Chromatin accessibility mapping is a powerful approach to identify sites of open chromatin (i.e. to infer sites of active transcription). In ATAC-seq, a Tn5 transposase inserts sequencing adapters into accessible DNA (‘tagmentation’). […] In the right panel, exposure of the fibroblasts to polyIC increases the average length (KB) of open chromatin.
Identify the role of O-GlcNAcylation in DNA accessibility. […] However, it is unknown if this occurs during transdifferentiation of fibroblasts to iECs. […] To test if O-GlcNAcylation controls this process.

[7] = system: H3.3 deposition; experiment: H3.3-SNAP tagging, quench-chase-pulse TMR-Star labeling; type: cell-based; conditions: vs control
Text: To identify the role of O-GlcNAcylation of histone variant h3.3 chaperone protein, HIRA, on transdifferentiation. The effects of O-GlcNAcylation on proteins that may be involved in the epigenetic regulation of transdifferentiation can be assessed. Nucleosome turnover is known to be tightly interrelated with DNA accessibility, and histone variant h3.3 is a hallmark of regulatory regions in the mammalian genome and is required to establish open chromatins. HIRA is the chaperone for h3.3, it forms a complex with other subunits, including ASF1. UBN, and CABIN, and is responsible for h3.3 deposition on the chromatin. OGT interacts with and O-GlcNAcylates HIRA, both of which are critical for the formation of the HIRA-h3.3 complex and h3.3 deposition and its dependent gene activation. […] The role of HIRA in transdifferentiation with fibroblasts that have HIRA knocked down or overexpressed can be determined. […] Thereafter, the de novo deposited SNAP-h3.3 will be pulse-labeled with the TMR-Star, which is a readily detectable and quantifiable red-fluorescent substrate. […]
To test whether innate immune activation enhances the H3.3 deposition in the chromatin, the H3.3-SNAP tagging system was generated where the newly synthesized H3.3 will be detected by fluorescent TMR-Star labeling with quench-chase-pulse strategy.

[8] = system: HIRA-H3.3 complex; experiment: immunoprecipitation using HIRA antibody; type: cell-based; conditions: after Poly I:C treatment
Text: The histone variant h3.3 is a replacement for its canonical form of h3.1 and h3.2 in the nucleosome. Its deposition is usually associated with transcription activation and enhanced DNA accessibility. The complex that is responsible for h3.3 deposition is called HIRA complex which consists of HIRA. UBN, and cabin as the histone chaperone proteins. The HIRA O-GlcNAcylation is known to be critical for its function in H3.3 deposition. During the vascular recovery in the WT mice, the level of HIRA complex subunits, including ASFIA. HIRA. UBN, as well as the H3.3 deposition are increased (FIG. 22A). The HIRA-H3.3 pathway in the fibroblast progeny cells is activated, especially in the limbs recovering from ischemia 3- and 7-days post-surgery compared with the non-YFP+ cells (FIG. 22B). […] An in vitro system to test whether the HIRA-H3.3 pathway is activated during transdifferentiation was used.

[9] = system: BJ fibroblasts; conditions: PolyI:C alone, without endothelial growth factors; cited from earlier work
[10] = system: MEFs; conditions: Chanda et al. 2019; cited from earlier work

Molecule | iEC yield (number of CD31 expressing iECs generated during transdifferentiation) [1] | iEC yield (number of CD31 expressing iECs generated during transdifferentiation) ([1]; listed as Thiamet G) | recovery of blood flow post femoral artery ligation (revascularization) [2] | capillary density [3] | limb perfusion [3] | number of fibroblasts transdifferentiating into endothelial cells (FSP+CD31+ cell) [3] | tissue O-glycnacylation [3] | UDP-GlcNAc level [4] | UDP-GlcNAc level ([4]; listed as Poly I:C) | O-GlcNAcylation [5] | O-GlcNAcylation ([5]; listed as Poly I:C) | chromatin accessibility (open chromatin around TSS) [6] | chromatin accessibility (open chromatin around TSS) ([6]; listed as polyIC) | H3.3 deposition [7] | HIRA interaction with UBN and H3.3 [8] | transdifferentiation of fibroblasts to endothelial cells [9] | DNA accessibility [10]
[N-]=[N+]=CC(=O)CC[C@H](N)C(=O)O [DON] | decreases; also recorded: impair |  |  |  |  |  |  |  |  |  |  |  |  |  |  |  | 
CCNC1=NC2C(OC(CO)C(O)C2O)S1 (stereo not drawn) [TMG, 2-(ethylamino)-5-(hydroxymethyl)-5,6,7,7a-tetrahydro-3aH-pyrano[3,2-d][1,3]thiazole-6,7-diol] | increases | increased | enhanced recovery; also recorded: enhances | increased | increased | increased | increased |  |  |  |  |  |  |  |  |  | 
Polyinosinic:polycytidylic acid [PolyI:C] |  |  |  |  |  |  |  | highly elevated; also recorded: up-regulated | consistently increases | elevation primarily occurs in nuclear proteins; also recorded: augmentation | elevation | more accessible chromatin regions | increases | enhances | enhanced | does not occur | enhances
